Test results taken from patent US20160081912A1, “COMPOSITIONS FOR IMPROVING THE HAIR, SKIN, AND NAILS” (FYBRANDS CORP., priority 2013, published 2016).

Test: Solubility of cycloastragalus in water, acetone and oil carriers
Type: physicochemical
Source text: In certain embodiments, the disclosure provides compositions to deliver the active ingredient to the root bulb of the hair follicle. Cycloastragalus is not soluble in water. Creating a cream formulation could possibly lead to clogging of pores at the site of the hair follicle, which could negatively affect restoration of the follicle. In certain aspects, the present disclosure relates to delivery of cycloastragalus using oil-based formulations. Oil is absorbed into the stratum corneum and deeper layers of the skin where the root bulb cells are located.
Initial attempts at determining an appropriate oil carrier were done using either or in combination together C10-30 Cholesterol and Lanosterol esters.
Further attempts were then made in to dissolve the cycloastragalus in oil carrier.
Cycloastragalus is soluble in acetone. We evaluated the possibility that cycloastragalus could be first dissolved in acetone and then put into solution with an oil carrier. Since acetone evaporates to completion out of any open system, it could be removed leaving the cycloastragalus in solution. One should keep in mind that acetone is incredibly flammable, and methods for removing acetone should be chosen carefully.

## CC(C)(O)[C@@H]1CC[C@](C)([C@H]2[C@@H](O)C[C@@]3(C)[C@@H]4C[C@H](O)[C@H]5C(C)(C)[C@@H](O)CC[C@@]56C[C@@]46CC[C@]23C)O1 [Cycloastragalus, cycloastragenol]
acetone
  solubility in acetone: soluble
Oil carrier, direct dissolution without acetone
  dissolving in oil carrier: limited success
  solubility in water: not soluble
Listed as cycloastragalus
  solubility in water: very limited results
